Data: EPA's ToxValDB 9.5 (doi:10.2903/j.efsa.2010.1892)
Converted amounts (≈) assume the structure as drawn.

Columns and labels:
Tagia sp. = conditions: acute; duration: 14 days; mortality
Bibionidae = conditions: chronic/long-term; duration: 28 days
Daphnia magna = conditions: chronic/long-term; duration: 21 days; behavior
Folsomia candida = conditions: acute; duration: 14 days; mortality
Canidae = conditions: chronic; duration: 1 years; oral; Dog Other; food consumption
Apis mellifera = conditions: acute; duration: 48 hours; dermal; mortality
Anas platyrhynchos = conditions: acute; oral; unspecified; mortality
Oncorhynchus mykiss = conditions: chronic/long-term; duration: 63 days
Perca sp. = conditions: acute; duration: 96 hours; mortality
Adalia sp. = assay: LR50; higher = less toxic; conditions: not reported; mortality
Typhlodromus pyri = assay: LR50; higher = less toxic; conditions: not reported; mortality
[1] = reproduction developmental, reproduction

CC(C)(C)c1ccc(CCOc2ncnc3ccccc23)cc1 [Fenazaquin]
LC50 (Tagia sp.): 26.5 mg/kg | NOEC (Bibionidae): 0.0188 mg/kg | NOEC (Daphnia magna): 0.0014 mg/L | LD50 (Rattus norvegicus; acute, oral, M, mortality): 134 mg/kg | NOAEL (Rattus norvegicus; chronic, duration: 2 years, oral, histopathology: nonneoplastic): 0.46 mg/kg-day | NOAEL (Rattus norvegicus; reproduction developmental, food consumption): 10 mg/kg-day | NOEL (Rattus norvegicus; [1]): 25 mg/kg-day | LC50 (Folsomia candida): > 1000 mg/kg | NOAEL (Canidae): 5 mg/kg-day | LD50 (Apis mellifera): 1.21 µg/piece | LD50 (Anas platyrhynchos): > 2000 mg/kg | NOEC (Oncorhynchus mykiss): 0.00096 mg/L | LC50 (Colinus virginianus; acute, oral, diet, mortality): > 1170 mg/kg-day | LD50 (Colinus virginianus; acute, oral, mortality): 1750 mg/kg | NOEC (Colinus virginianus; [1]): 80.3 mg/kg-day | LC50 (Perca sp.): 3.2 ng/mL (≈ 0.0104 µM) | LR50 (Adalia sp.): < 21.9 g/ha | LR50 (Typhlodromus pyri): < 2 g/ha
